The record followed here is US20250257055A1, “TERTIARY AMIDE DERIVATIVES SUBSTITUTED WITH 4-MEMBERED RING STRUCTURE” (Sumitomo Pharma Co., Ltd., priority 2024, published 2025).

Data set [1] has as its system Kuramochi cells. Description: Cell proliferation inhibition experiment using Kuramochi cells. The data set is classed as cell-based. As to conditions: 144 h, cultured for 6 days, CellTiter-Glo. The method, then:
Kuramochi cells (derived from ovarian cancer) were obtained from JCRB (Japanese Collection of Research Bioresources) cell bank. Kuramochi cells were cultured in RPMI-1640 medium containing 10% fetal bovine serum and 1% penicillin/streptomycin under conditions of 37° C. and 5% CO2.
500 cells per well were seeded in a 384-well plate. One day after seeding, Examples 3, 7, 9, 10, 11, 20, 23 to 25, and 30 to 34 were added so that the final concentration of DMSO was 0.1%, and the cells were cultured for 6 days. After the culture was completed, the cell viability was measured using CellTiter-Glo Luminescent Cell Viability Assay (Promega, G7570).

Data set [2] can be described thus: Pharmacokinetic study in mice. The data set is classed as in vivo. To be noted: for AUC / clearance / half-life / Vd / Cmax: female, BALB/c (BALB/cAnN CrlCrlj), mouse, plasma; for Vd: read-out: Vdss. As for the experimental part:
The test compound was administered to 7-week-old female BALB/c (BALB/cAnN CrlCrlj) mice intravenously (dosage: 1 mg/kg) in a 50% PEG solution (0.01 mol/L HCl) or orally (dosage: 10 mg/kg) in a 0.5% methylcellulose aqueous solution, and blood was collected at the following times:
Intravenous administration: 5 min, 15 min, 30 min, 1 hr, 2 hr, 4 hr, 6 hr, and 24 hr after administration
Oral administration: 15 min, 30 min, 1 hr, 2 hr, 4 hr, 6 hr, and 24 hr after administration
The collected blood was centrifuged at 3000 rpm×10 min using a refrigerated centrifuge set at 4° C., and the obtained plasma was measured by LC-MS. A calibration curve was prepared from the value (peak ratio) obtained by dividing the peak area of the test substance by the peak area of the internal standard substance in MS and the concentration of the plasma calibration curve sample. The concentration in the sample was calculated from the peak ratio and the calibration curve of each sample.

The subject of data set [3] is G-401 xenograft. Description: Drug efficacy evaluation by oral administration using G-401 xenograft model mice. As to conditions: for antitumor effect (in words): G-401 xenograft model, oral administration; for T/C: oral twice a day. It is filed as in vivo. As for the experimental part:
G-401 cells (ATCC) were intradermally transplanted into 4-7-week-old BALB/cAnNCrj-nu/nu mice (CAnN.Cg-Foxn1/CrlCrlj, Jackson Laboratory Japan) at 5×10^5 cells/mouse. After confirming the engraftment of G-401 cells 10-40 days after transplantation, the test compound suspended in a solvent such as 0.5% methylcellulose solution was orally administered twice a day at a dose of 1-100 mg/kg. The tumor volume was measured over time from the start of administration, and the effect of tumor volume reduction by administration of the test compound was evaluated. The tumor volume can be calculated from the following equation using the minor axis and major axis of the tumor measured with an electronic caliper (Mitutoyo).
A control administration group administered with only a solvent such as 0.5% methylcellulose solution and a test compound administration group were compared, and the antitumor effect was evaluated by calculating T/C from the following equation.

In data set [1], `CN1CC(N(Cc2ccc(F)cn2)C(=O)CN2C(=O)N[C@]3(C[C@@H](F)c4cc(-c5cnn(C)c5)ccc43)C2=O)(C(F)(F)F)C1` [Example 20, 2-[(1′S,3′R)-3′-fluoro-5′-(1-methyl-1H-pyrazol-4-yl)-2,5-dioxo-2′,3′-dihydrospiro[imidazolidine-4,1′-inden]-1-yl]-N-[(5-fluoropyridin-2-yl)methyl]-N-[1-methyl-3-(trifluoromethyl)azetidin-3-yl]acetamide] registered an IC50 of 320 nM. Also, in data set [2] (intravenous, 1 mg/kg), the AUC was 528 ng·h/mL, the clearance amounted to 31.1 mL/min/kg, the half-life was 1.34 h and the Vd was determined as 1.6 L/kg. In data set [2] (oral, 10 mg/kg), this molecule showed an AUC of 1520 ng·h/mL, a Cmax of 1340 ng/mL and a BA of 28.8%. Also, the “antitumor effect (in words)” value in data set [3] is on record as “strong antitumor effects”. In addition, in data set [3] (20 mg/kg, 21 days), the T/C is recorded as 80%. In data set [3] (30 mg/kg, 21 days), the T/C stood at 89%.
For `O=C1N[C@]2(C[C@@H](F)c3cc(-c4cnn(C5CN(C6COC6)C5)c4)ccc32)C(=O)N1CC(=O)N(Cc1ccc(F)cn1)C1(C(F)(F)F)COC1` [Example 7, 2-[(1′S,3′R)-3′-fluoro-5′-{1-[1-(oxetan-3-yl)azetidin-3-yl]-1H-pyrazol-4-yl}-2,5-dioxo-2′,3′-dihydrospiro[imidazolidine-4,1′-inden]-1-yl]-N-[(5-fluoropyridin-2-yl)methyl]-N-[3-(trifluoromethyl)oxetan-3-yl]acetamide], the IC50 in data set [1] is 298 nM. For the same molecule, in data set [2] (intravenous, 1 mg/kg), the AUC was determined as 819 ng·h/mL, the clearance was found to be 19.9 mL/min/kg, the half-life was 1.41 h and the Vd was found to be 1.3 L/kg. In data set [2] (oral, 10 mg/kg), this molecule showed an AUC of 8240 ng·h/mL, a Cmax of 6140 ng/mL and a BA of 100.6%. Moreover, the “antitumor effect (in words)” value in data set [3] is “strong antitumor effects”. The molecule further showed a T/C in data set [3] (10 mg/kg, 34 days) of 31%. In data set [3] (30 mg/kg, 34 days), the T/C was 80%.
Take `O=C1N[C@]2(C[C@@H](F)c3cc(-c4cnn(C5CCN(C6COC6)CC5)c4)ccc32)C(=O)N1CC(=O)N(Cc1ccc(F)cn1)C1(C(F)(F)F)COC1` [Example 23, 2-[(1′S,3′R)-3′-fluoro-5′-{1-[1-(oxetan-3-yl)piperidin-4-yl]-1H-pyrazol-4-yl}-2,5-dioxo-2′,3′-dihydrospiro[imidazolidine-4,1′-inden]-1-yl]-N-[(5-fluoropyridin-2-yl)methyl]-N-[3-(trifluoromethyl)oxetan-3-yl]acetamide]: in data set [1], it took 591 nM to reach half-maximal inhibition (IC50). In data set [2] (intravenous, 1 mg/kg), the AUC was determined as 1690 ng·h/mL, the clearance amounted to 9.8 mL/min/kg, the half-life is 4.1 h and the Vd was determined as 1.8 L/kg. In data set [2] (oral, 10 mg/kg), the AUC was found to be 8400 ng·h/mL, the peak level (Cmax) was 8140 ng/mL and the BA is given as 49.7%. For the same molecule, in data set [3], the “antitumor effect (in words)” value is given as “strong antitumor effects”. The same molecule registered a T/C in data set [3] (20 mg/kg, 21 days) of 81%.
As to `CN1CC(N(Cc2ccc(F)cc2)C(=O)CN2C(=O)N[C@]3(C[C@@H](F)c4cc(-c5cnn(C)c5)ccc43)C2=O)(C(F)(F)F)C1` [Example 10, 2-[(1′S,3′R)-3′-fluoro-5′-(1-methyl-1H-pyrazol-4-yl)-2,5-dioxo-2′,3′-dihydrospiro[imidazolidine-4,1′-inden]-1-yl]-N-[(4-fluorophenyl)methyl]-N-[1-methyl-3-(trifluoromethyl)azetidin-3-yl]acetamide], the IC50 in data set [1] came to 66 nM. Also, in data set [2] (intravenous, 1 mg/kg), the AUC is 491 ng·h/mL, the clearance amounted to 33.5 mL/min/kg, the half-life was 1.16 h and the Vd amounted to 1.8 L/kg. In data set [2] (oral, 10 mg/kg), the AUC amounted to 3480 ng·h/mL, the Cmax is 3240 ng/mL and the BA is given as 70.8%. The “antitumor effect (in words)” value in data set [3] is “strong antitumor effects”. Moreover, in data set [3] (3 mg/kg, 21 days), the T/C was found to be 53%. In data set [3] (10 mg/kg, 21 days), the T/C worked out at 102%.
In data set [1], `CN1CC(N(Cc2ccc(F)cn2)C(=O)CN2C(=O)N[C@]3(C[C@@H](F)c4cc(-c5cnn(C6COC6)c5)ccc43)C2=O)(C(F)(F)F)C1` [Example 24, 2-{(1′S,3′R)-3′-fluoro-5′-[1-(oxetan-3-yl)-1H-pyrazol-4-yl]-2,5-dioxo-2′,3′-dihydrospiro[imidazolidine-4,1′-inden]-1-yl}-N-[(5-fluoropyridin-2-yl)methyl]-N-[1-methyl-3-(trifluoromethyl)azetidin-3-yl]acetamide] showed an IC50 of 399 nM. Further, in data set [2] (intravenous, 1 mg/kg), the AUC came out at 313 ng·h/mL, the clearance was determined as 53 mL/min/kg, the half-life was 1.15 h and the Vd was 2.1 L/kg. Besides, in data set [2] (oral, 10 mg/kg), the AUC worked out at 1470 ng·h/mL, the Cmax was 1470 ng/mL and the BA is given as 47.0%.
